Like-named read-outs stand apart in the source and are kept apart here.

By viability is commonly meant a read-out of living cells in per cent, often relative to untreated cells.

One data set relates to GLUT-2. Kind of data set: GLUT-2 uptake experiment (phloretin blockade, MTS). It counts as cell-based. The conditions noted are these: African green monkey, VERO cells, with phloretin 25 µM, Pre-treated with 25 μM Ph, read-out: VERO Cell Viability %. Here is the method: (§1) We observed that Ph selectively mitigated the cytotoxicity of STR-V-53 against the Hep-G2 cell line with no apparent effect on the cytotoxicity of SAHA (Figure 2a). […] This matches our expectation because Hep-G2 cells overexpress GLUT-2 while VERO has limited expression of GLUT-2.[26] […]
(§2) Hep-G2 or VERO cells were seeded (2500 to 4,000 counts/well) into 96-well plates, in which each well contains 100 µL media. The cells were cultured overnight in the respective media described in the cell culture section above. On day 2, the cells were treated with 25 µM Phloretin for 24 h. On day 3, 200x stock solutions of STR-V-53 and SAHA were used to prepare 2x treatment solution by adding 1% stock solution in the media. Then, without removal of the media in 96-well plates, the same volumes of drug as the media were added directly to the wells with gentle pipetting to reach 1x drug solution with 25 µM Ph. After another 72 h, the media were removed, and new media (100 µL) added to the wells. MTS solution (20 µL) was added to each well. After 2.5-4 h incubation, the plates were read using a multiplate reader at 490 nm. The data were processed using GraphPad Prism 8. […]

The nature of data set [1]: GLUT-2 uptake experiment (phloretin blockade, MTS). It counts as cell-based. The following applies: African green monkey, VERO cells, No addition of Ph, read-out: VERO Cell Viability %. The method, then: as §1, §2
The subject of another data set is Hep-G2 cells. Kind of data set: GLUT-2 uptake experiment (phloretin blockade, MTS). It is filed as cell-based. The conditions noted are these: Homo sapiens, read-out: Hep-G2 Cell Viability %; for viability at 6.25 µM: HepG2, 6.25 μM; for viability at 12.5 µM: HepG2, 12.5 μM; for viability at 1.25 µM: HepG2, 1.25 μM; for viability at 2.5 µM: HepG2, 2.5 μM. Here is the method:
We observed that Ph selectively mitigated the cytotoxicity of STR-V-53 against the Hep-G2 cell line with no apparent effect on the cytotoxicity of SAHA (Figure 2a). […] This matches our expectation because Hep-G2 cells overexpress GLUT-2 while VERO has limited expression of GLUT-2.[26]
MIDI 4-20% gel (Biorad, cat. 5671093) and ran at 150 V for 70 min. The gel was then transferred onto the Turbo PDVF membrane (Biorad, 1704273), and after blocking with 5% BSA for 1-2 h, the membrane was incubated overnight with primary antibodies Ac-Tubulin (sc-23950), Ac-H4 (sc-515319) (Santa Cruz Biotechnology), caspase 3 and clv-Caspase 3 (Cell signaling Technology), anti-p21WAF/CIP (ThermoFisher), anti-GAPDH (Aldrich-Sigma). On the second day, the membrane was washed with TBST for 3x5 min; a secondary antibody (LiCOR) was added, and the membrane was incubated with agitation for 1 h. After washing with TBS-T 3x5 mins, bands were quantified using the Odyssey CLx Image system.
Hep-G2 or VERO cells were seeded (2500 to 4,000 counts/well) into 96-well plates, in which each well contains 100 µL media. The cells were cultured overnight in the respective media described in the cell culture section above. On day 2, the cells were treated with 25 µM Phloretin for 24 h. On day 3, 200x stock solutions of STR-V-53 and SAHA were used to prepare 2x treatment solution by adding 1% stock solution in the media. Then, without removal of the media in 96-well plates, the same volumes of drug as the media were added directly to the wells with gentle pipetting to reach 1x drug solution with 25 µM Ph. After another 72 h, the media were removed, and new media (100 µL) added to the wells. MTS solution (20 µL) was added to each well. After 2.5-4 h incubation, the plates were read using a multiplate reader at 490 nm. The data were processed using GraphPad Prism 8.
Hep-G2 cells (5*106) were seeded in a 10 cm plate with MEM and incubated until 50% confluency before drug treatment. Cells were treated, with DMSO (control) and DMSO solutions of SAHA (5 µM) and STR-V-53 (15 µM) such that the final DMSO level was 0.1%,

The subject of a further data set is Hep-G2 (HCC). Kind of data set: MTS cell viability assay, 72 h. It counts as cell-based, human. The following applies: Table S2; read-out: Anti-proliferation IC50 Hep-G2. The source says: We then screened STR-V-53 and all the synthesized glycosylated HDACi for their effects on the viability of three cell lines: A549 (lung adenocarcinoma), Hep-G2 (HCC), and VERO (a normal kidney epithelial cell). We used SORA and STR-V-48, a previously disclosed nonglycosylated compound, as controls.[25] […] Additionally, compound STR-V-167, the peracetylated analog of STR-V-53, largely retained the Hep-G2 selectivity of STR-V-53 (Table S2). Subsequently, we evaluated the effects of STR-V-53 on cell proliferation using a panel of human HCC cell lines (Huh-7, SK-Hep-1, and Hep3B) as well as Kupffer cells (liver resident macrophages) by MTS assay. We observed that STR-V-53 is 7- to 16-fold more cytotoxic against these HCC cell lines relative to the Kupffer cells (Figure 1g). […] Based on their weak HDAC and cell proliferation inhibition activities, we de-emphasized further evaluation of the class III compounds.
10-017-CV), supplemented with 10% fetal bovine serum (FBS) (Corning, 35-010-CV). Hep-G2 cells were cultured in phenol red-free Minimum Essential Medium (MEM) (Corning, 17-305-CV), supplemented with 10% fetal bovine serum (FBS). SK-Hep-1 in ATCC-formulated EMEM (ATCC® 30–2003™); Huh-7 in DMEM (containing 4 mM L-glutamine and 1 g/L glucose) with […]
Kupffer Cell Media (Sekisui XenoTech, LLC, Cat. #K8700). Cells were seeded into a 96-well plate (2000 counts/100uL) for 24 h prior to treatment and then treated with various drug concentrations for 72 h. All drugs were dissolved in media with DMSO concentration maintained at 1%. The effect of compounds on cell viability was measured using the MTS assay (CellTiter 96 Aqueous One Solution and CellTiter 96 Non-Radioactive Cell Proliferation Assays, Promega, Madison, WI) as described by the manufacturer. IC50s were determined using Prism GraphPad 8. […]
(Tetrazolium assays rely on reduction of a dye to a coloured formazan, in cell work by metabolically active cells.)

For `O=C(CCCCCCn1cc(-c2ccc(O[C@H]3O[C@H](CO)[C@@H](O)[C@H](O)[C@H]3O)cc2)nn1)NO` [STR-V-53], the viability at 72 h, 75 µM with GLUT-2 (75μM) stood at 100%; in data set [1] (75μM) it was 98.4%. Also, the viability at 72 h, 100 µM stood at 75.9% with GLUT-2 (100μM) and 77.8% in data set [1] (100μM). Besides, the viability at 6.25 µM with Hep-G2 cells (No addition of Ph) amounted to 104%; with Hep-G2 cells (Pre-treated with 25 μM Ph), 103%. Also, the viability at 12.5 µM with Hep-G2 cells (No addition of Ph) amounted to 25.4%; in the data set with Hep-G2 cells (Pre-treated with 25 μM Ph), 70.3%.
For the molecule `O=C(CCCCCCn1cc(-c2ccc3cc(O[C@H]4O[C@H](CO)[C@@H](O)[C@H](O)[C@H]4O)ccc3c2)nn1)NO` [STR-V-114], in the data set with Hep-G2 (HCC), the IC50 was found to be 6.7 ± 1.6 µM.
With `O=C(CCCCCCC(=O)Nc1ccccc1)NO` [SAHA, vorinostat, reference compound], the viability at 72 h, 6.5 µM came out at 87.2% in the data set on GLUT-2 (6.5 μM) and 97.7% in data set [1] (6.5 μM). Further, the viability at 72 h, 12.5 µM in the data set on GLUT-2 (12.5 μM) was found to be 7.5%; in data set [1] (12.5 μM) it was 17.1%. Also, the figures for the viability at 1.25 µM with Hep-G2 cells (No addition of Ph) and with Hep-G2 cells (Pre-treated with 25 μM Ph) were 96.2% and 84%, respectively. Further, the viability at 2.5 µM was 31.2% in the data set with Hep-G2 cells (No addition of Ph) and 41.8% with Hep-G2 cells (Pre-treated with 25 μM Ph).
As for `O=C(CCCCCCn1cc(-c2ccc(O[C@@H]3O[C@H](CO)[C@@H](O)[C@H](O)[C@H]3O)cc2)nn1)NO` [STR-I-195], the IC50 in the data set with Hep-G2 (HCC) was found to be 22.3 ± 2 µM.

For the origin of these results see PMC11475281, “A Novel Liver Cancer-Selective Histone Deacetylase Inhibitor Is Effective against Hepatocellular Carcinoma and Induces Durable Responses with Immunotherapy” (ACS Pharmacology & Translational Science, 2024).
